We go through one molecule from patent US6716596B2, “Agents for replacement of NAD+/NADH system in enzymatic reactions” (The Regents of the University of California, priority 2001, dated 2004).

The test is described as follows: regioselective reduction of biomimics with catalyst precursor (2) and sodium formate, followed by 1H NMR. The following applies: disappearance of pyridinium signals vs [(CH3)4N]OTf during first 2 hours; compound (1a) set to 1.0. The procedure: The relative rates, seen tabulated in FIG. 1C, were determined by observing disappearance of the pyridinium signals versus an internal standard, [(CH3)4N]OTf (tetramethylammonium triflate), during the first 2 hours, where the relative rate of 1-benzylnicotinamide triflate (1) was set to 1.0. The turnover frequencies were calculated by the formation of mmol of product/mmol of catalyst/hour. The total turnover number in 24 hours was ˜95 for all substrates that gave product. The reactions were conducted in presilylated J. Young NMR tubes and were followed by ^1H NMR.
The electronic effect of differently substituted nicotinamide substrates was determined by their relative rates. The relative rates of these compounds were determined by observing the disappearance of the pyridinium signals compared to interval standard, [(CH3)4N]OTf, during the first 2 hours, where the relative rate of compound (1a) was 1.0.
In a typical reaction, a J. Young NMR tube was charged, biomimic substrates (1a)-(1i) (1.0 mol), 2 (1% mol), and HCO2Na (1.1 mol) used as the hydride source and a Schlenk techniques were conducted to deoxygenate the solid mixture. A diluted solvent was added to these solids for compounds (1a)-(1i), the solvent was D2O-THF-d8 (1=1 0.75 mL, deoxygenated), and the NMR tube was placed in a liquid nitrogen bath. The contents were further degassed by two successive freeze-pump-thaw cycles. After thawing out the reaction mixture, the J. Young NMR tube was immediately put in a salted ice-bath and covered with aluminum foil. The reaction was then followed by ^1H NMR spectroscopy at 26° C. temperature, after a speedy thawing out.
The given relative rates and turnover frequencies were determined by decreasing integration of the corresponding pyridinium salts measured against an internal standard, (CH3)4N(OTf), during the first 2 h of the reaction. The ratios of the 1,4- and 1,6-dihydronicotinamide derivatives of compounds (1a), (1b) and (1d)-(1g) were obtained by comparison of the resonance signals with those of authentic samples, where the diagnostic signal is the resonance for —CH2Ph moiety which can be identified unambiguously in the ^1H NMR spectrum.

Where a name gives a salt, the structure may show the parent alone.

With `NC(=O)c1ccc[n+](Cc2ccccc2)c1` [Compound 1a, 1-Benzylnicotinamide, Triflate Salt], the “relative rate of regioselective reduction” value was 1.0.
